Among the data in ChEMBL document CHEMBL1139129, “Bis-styrylpyridine and bis-styrylbenzene derivatives as inhibitors for Abeta fibril formation” (Bioorg Med Chem Lett, 2007) are viability and IC50 values, retold here.

By IC50 is commonly meant the concentration that gives 50% inhibition.

Chain of Amyloid-beta precursor protein (P05067 whole entry): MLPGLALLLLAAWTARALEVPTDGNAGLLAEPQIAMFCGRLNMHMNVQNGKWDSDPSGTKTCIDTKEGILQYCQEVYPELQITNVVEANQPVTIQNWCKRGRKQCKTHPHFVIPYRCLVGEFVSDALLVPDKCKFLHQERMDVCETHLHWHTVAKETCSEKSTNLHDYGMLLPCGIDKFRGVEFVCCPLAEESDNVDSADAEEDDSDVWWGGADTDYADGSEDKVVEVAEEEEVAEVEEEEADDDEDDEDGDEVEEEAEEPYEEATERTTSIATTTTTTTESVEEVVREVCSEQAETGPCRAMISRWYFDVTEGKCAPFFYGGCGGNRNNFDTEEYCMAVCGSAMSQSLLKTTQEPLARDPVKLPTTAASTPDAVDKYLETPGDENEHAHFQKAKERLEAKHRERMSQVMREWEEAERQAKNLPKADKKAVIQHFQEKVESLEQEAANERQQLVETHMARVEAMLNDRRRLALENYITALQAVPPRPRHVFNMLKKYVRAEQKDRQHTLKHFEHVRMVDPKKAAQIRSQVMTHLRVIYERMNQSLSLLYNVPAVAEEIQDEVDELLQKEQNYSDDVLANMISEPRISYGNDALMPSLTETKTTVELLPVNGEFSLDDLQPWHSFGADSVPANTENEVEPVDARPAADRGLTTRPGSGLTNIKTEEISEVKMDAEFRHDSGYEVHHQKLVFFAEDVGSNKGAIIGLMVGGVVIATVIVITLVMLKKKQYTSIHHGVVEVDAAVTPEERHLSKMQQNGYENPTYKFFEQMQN

The first assay concerns HT-22. The experiment in a line: Cytotoxicity against HT22 cells assessed as cell viability at 10 uM by MTT assay relative to control. Particulars: Mus musculus, read-out: Activity. It counts as functional, Homo sapiens.
As to `CNc1ccc(/C=C/c2cccc(/C=C/c3ccc(NC)c(OC)c3)c2)cc1OC` [listing 1 of 2 here], the viability at 10 µM came out at 150%.
On the same count and under the same terms, the value for `COc1cc(/C=C/C(=O)CC(=O)/C=C/c2ccc(O)c(OC)c2)ccc1O` [CURCUMIN] was 116%.

A further assay has as its target Amyloid-beta precursor protein (Homo sapiens, UniProt P05067). Put plainly: Inhibition of amyloid beta 42 fibril formation by thioflavin T assay.
Conditions: not given
Compound `CNc1ccc(/C=C/c2cccc(/C=C/c3ccc(NC)c(O)c3)n2)cc1O` registered an IC50 of 0.9 µM. This counts as sub-micromolar.
Still for that read-out and setting: the value for `COc1cc(/C=C/c2cccc(/C=C/c3ccc(N4CCCC4)c(OC)c3)c2)ccc1N1CCCC1` was more than 20 µM; that for `COc1cc(/C=C/c2cccc(/C=C/c3ccc(N(C)C)c(OC)c3)n2)ccc1N(C)C` was 0.8 µM.
As to `CN(C)c1ccc2cc3ccc(N(C)C)cc3nc2c1` [ACRIDINE ORANGE], the concentration for half-maximal inhibition (IC50) was 0.6 µM.
The same measure, in the same setting: the value for `COc1ccc(/C=C/c2cccc(/C=C/c3ccc(OC)c(N(C)C)c3)n2)cc1N(C)C` was 0.9 µM; that for `COc1cc(/C=C/c2cccc(/C=C/c3ccc(O)c(OC)c3)n2)ccc1O` was 0.8 µM; that for `COc1ccc(/C=C/c2cccc(/C=C/c3ccc(OC)c(N(C)C)c3)c2)cc1N(C)C` was 1.1 µM.
The same measure, in the same setting: with `CNc1cc(/C=C/c2cccc(/C=C/c3ccc(OC)c(NC)c3)n2)ccc1OC` the figure was 1.1 µM.
Regarding `COc1cc(/C=C/c2cc(N(C)C)cc(/C=C/c3ccc(O)c(OC)c3)n2)ccc1O`, the IC50 stood at 1.9 µM.
In turn, `COc1cc(/C=C/c2cccc(/C=C/c3ccc(N)c(OC)c3)c2)ccc1N` returned an IC50 of 0.6 µM.
Same read-out and setting: the value for `CNc1ccc(/C=C/c2cccc(/C=C/c3ccc(NC)c(OC)c3)n2)cc1OC` was 0.5 µM.
The same measure, in the same setting: the value for `CNc1cc(/C=C/c2cccc(/C=C/c3ccc(OC)c(NC)c3)c2)ccc1OC` was 1.3 µM.
As to `COc1ccc(/C=C/c2cccc(/C=C/c3ccc(OC)c(N)c3)n2)cc1N`, the IC50 was determined as 0.6 µM.
`COc1cc(/C=C/c2cc(C)cc(/C=C/c3ccc(O)c(OC)c3)n2)ccc1O` gave an IC50 of 1.4 µM. Compared with the last compound, the IC50 is about 2.3-fold higher.
With `CN(C)c1ccc(/C=C/c2cccc(/C=C/c3ccc(N(C)C)cc3)c2)cc1`, the IC50 is more than 20 µM.
Still for that read-out and setting: with `CN(C)c1ccc(/C=C/c2cccc(/C=C/c3ccc(N(C)C)c(O)c3)c2)cc1O` the figure was 0.7 µM.
Still for that read-out and setting: the value for `COc1cc(/C=C/c2cc(Br)cc(/C=C/c3ccc(O)c(OC)c3)n2)ccc1O` was 1.1 µM.
The same measure, in the same setting: the value for `CN(C)c1cc(/C=C/c2cccc(/C=C/c3ccc(O)c(N(C)C)c3)n2)ccc1O` was 2.3 µM.
The compound `CN(C)c1ccc(/C=C/c2cccc(/C=C/c3ccc(N(C)C)c(O)c3)n2)cc1O` registered an IC50 of 0.9 µM.
The same measure, in the same setting: the value for `COc1ccc(/C=C/c2cccc(/C=C/c3ccc(OC)c(N)c3)c2)cc1N` was 0.3 µM.
Still for that read-out and setting: with `COc1cc(/C=C/c2ccc(O)c(OC)c2)nc(/C=C/c2ccc(O)c(OC)c2)c1` the figure was 1.7 µM; with `COc1cc(/C=C/c2cc(Br)cc(/C=C/c3ccc(N)c(OC)c3)n2)ccc1N`, 1.1 µM.
On the same count and under the same terms, the value for `COc1cc(/C=C/c2cc(Br)cc(/C=C/c3ccc(N)c(OC)c3)c2)ccc1N` was 1.8 µM; that for `O=C(O)c1cc(/C=C/c2ccc(/C=C/c3ccc(O)c(C(=O)O)c3)c(I)c2)ccc1O` was 8 µM.
`CNc1ccc(/C=C/c2cccc(/C=C/c3ccc(NC)c(OC)c3)c2)cc1OC` [listing 2 of 2 here] registered an IC50 of 0.6 µM.
The same measure, in the same setting: with `COc1ccc(/C=C/c2cc(Br)cc(/C=C/c3ccc(OC)c(OC)c3)c2)cc1OC` the figure was 20 µM.
On the same count and under the same terms, the value for `COc1cc(/C=C/c2cccc(/C=C/c3ccc(N(C)C)c(OC)c3)c2)ccc1N(C)C` was 1 µM; that for `COc1cc(/C=C/c2cccc(/C=C/c3ccc(N)c(OC)c3)n2)ccc1N` was 0.7 µM; that for `CN(C)c1ccc(/C=C/c2cc(I)cc(/C=C/c3ccc(N(C)C)cc3)c2)cc1` was more than 20 µM.
Still for that read-out and setting: the value for `CN(C)c1ccc(/C=C/c2cc(Br)cc(/C=C/c3ccc(N(C)C)cc3)c2)cc1` was more than 20 µM.
On to `CNc1cc(/C=C/c2cccc(/C=C/c3ccc(O)c(NC)c3)n2)ccc1O`, for which the midpoint of inhibition, the IC50, lay at 0.5 µM.
The same measure, in the same setting: with `CN(C)c1cc(/C=C/c2cccc(/C=C/c3ccc(O)c(N(C)C)c3)c2)ccc1O` the figure was 2.7 µM; with `COc1cc(/C=C/c2cc(Br)cc(/C=C/c3ccc(O)c(OC)c3)c2)ccc1O`, 0.1 µM.
Take `COc1cc(/C=C/c2cc(Cl)cc(/C=C/c3ccc(O)c(OC)c3)n2)ccc1O`: the concentration for half-maximal inhibition (IC50) was 1.1 µM.
